# Key:
# [1] = system: B-cells containing BCR-ABL-T315I; assay: Proliferation, number of viable cells determined by trypan blue; assay type: cell-based
# Procedure: (§1) In FIG. 1A the number of viable cells at the indicated drug concentrations was determined by trypan blue. In FIG. 1B the expression of ABL and MCL-1 in K562 (myeloid) cells is inhibited by HHT. In FIG. 1C the expression of ABL in lymphoid cells with BCR-ABL or the BCR-ABL T315I mutation is inhibited by HHT.
# (§2) Antibodies for Western Blot analysis against c-ABL, Mcl-1 and β-actin were purchased from Santa Cruz Biothechology (Santa Cruz, Calif.). Protein lysates were prepared by lysing cells in RIPA buffer and immunoprecipitation. The retroviral vector MSCV-IRES-eGFP carrying the BCR-ABL cDNA was used to make virus stock for bone marrow transduction/transplantation. Four- to 10-week-old wild-type BABL/c or C57BL/6 (The Jackson Laboratory) and homozygous SRC triple gene knockout (Lyn−/−Hck−/−Fgr−/−) mice were used for leukemogenesis experiments. HHT (ChemGenex Pharmaceuticals, Inc, CA) was dissolved in accompanying diluent to a stock concentration of 1 mg/ml. Further dilutions were made to working concentrations using media or water.
# [2] = system: B-cells containing BCR-ABL-WT; assay: as above; assay type: cell-based
# Procedure: as §1, §2
# K562 myeloid cells = assay: as above; assay type: cell-based
# Procedure: as §1, §2
# ABL = assay: Western Blot analysis of ABL expression; assay type: cell-based
# Procedure: as §1, §2
# BCR-ABL-WT-induced CML = assay: Mice with BCR-ABL-WT-induced CML treated with HHT; assay type: in vivo
# Procedure: (§3) FIG. 2A is a FACS analysis of circulating GFP+ cells in mice with BCR-ABL-WT-induced CML. […] The number of circulating leukemic cells (calculated as percentage of Gr-1+GFP+ cells×white blood cell count) in mice with BCR-ABL-WT-induced CML treated with placebo or HHT for 4 days was determined on day 12 after transplantation. FIG. 2B depicts a bar graph for the leukemic cells as well as a bar graph for spleen weight of the mice treated with placebo or HHT.
# as §2
# as §3, with “of circulating leukemic GFP+ cells” for “of circulating GFP+ cells”
# [3] = system: leukemia stem cells (GFP+Lin− c-Kit+Sca-1+); assay: Bone marrow cells from CML mice cultured in vitro with HHT, FACS analysis of leukemia stem cells; assay type: cell-based
# Procedure: FIG. 5A is a FACS analysis of bone marrow cells isolated from mice with BCR-ABL-WT-induced CML were cultured in vitro (5×10^6 cells/6 cm tissue culture plate) in the presence of different doses of HHT for 6 days (changing the stem cell medium containing placebo or HHT at day 3) followed by FACS analysis of leukemia stem cells (GFP+Lin− c-Kit+Sca-1+). FIG. 5B depicts bar graphs for the leukemic cells and leukemic stem cells. […] Bone marrow cells were isolated from the treated CML mice, and leukemia stem cells were analyzed by FACS. The numbers of cells represent total leukemia stem cells in average from femur and tibia of each treated CML mouse.
# FIG. 5A is a FACS analysis of bone marrow cells isolated from mice with BCR-ABL-WT-induced CML that were cultured in vitro (5×10^6 cells/6 cm tissue culture plate) in the presence of different doses of HHT for 6 days (changing the stem cell medium containing placebo or HHT at day 3) followed by FACS analysis of leukemia stem cells (GFP+ Lin− c-Kit+Sca-1+). FIG. 5B depicts bar graphs for the leukemic cells and leukemic stem cells.
# [4] = Phase 2/3 study of subcutaneous omacetaxine, safety and tolerability; assay type: in vivo, human
# Procedure: A multicenter open-label phase 2/3 study evaluating safety and efficacy of omacetaxine administered subcutaneously (SC) in patients with IM-resistant T315I+CML in all phases of the disease is being conducted.
# Induction phase—1.25 mg/m2 twice daily SC for 14 consecutive days every 28 days until complete hematologic response (CHR) or hematologic improvement has been achieved.
# Maintenance therapy—1.25 mg/m2 twice daily SC for 7 days every 28 days for up to 24 months.
# Doses were adjusted to maintain adequate WBC and platelet control by increasing or decreasing the number of days of administration of omacetaxine.
# Includes all events considered related, probably related, possibly related, or with unknown relationship to omacetaxine treatment. Events listed in the table are included if occurrence was >5% of the total population (at least 1 of 23 patients).
# [5] = in vitro, different doses of HHT for 6 days
compound,measurement,setting,value
"COC(=O)C[C@](O)(CCCC(C)(C)O)C(=O)O[C@@H]1C(OC)=C[C@]23CCCN2CCc2cc4c(cc2[C@H]13)OCO4 [HHT, Homoharringtonine]",proliferation,[1],inhibits the proliferation
same,proliferation,[2],inhibits the proliferation
same,proliferation,K562 myeloid cells,inhibits the proliferation
same,expression of ABL,ABL; K562 (myeloid) cells,inhibited
same,expression of ABL,ABL; lymphoid cells with BCR-ABL,inhibited
same,expression of ABL,ABL; lymphoid cells with the BCR-ABL T315I mutation,inhibited
same,survival,"BCR-ABL-WT-induced CML; BCR-ABL-WT CML mice, HHT vs placebo",significantly increased
same,number of circulating leukemic cells (percentage of Gr-1+GFP+ cells×white blood cell count),"BCR-ABL-WT-induced CML; HHT 0.5 mg/kg for 4 days, day 12 after transplantation, vs placebo",significantly reduces
same,size of the spleen (spleen weight),BCR-ABL-WT-induced CML; HHT 0.5 mg/kg vs placebo,significantly reduces
same,proliferation of BCR-ABL-expressing leukemic stem cells,[3],inhibits the proliferation
same,number of leukemic cells,[3]; [5],reduces
same,number of leukemic stem cells,[3]; [5],reduces
same,Treatment-Related Serious Adverse Events: Neutropenic Fever,[4]; Accelerated Phase,1 (9) Number (percent)
same,Treatment-Related Serious Adverse Events: Thrombocytopenia,[4]; Accelerated Phase,0 Number (percent)
same,Grade 3/4 Toxicities: Anemia,"[4]; Accelerated Phase, N = 5",2 (40) number (percent)
same,Grade 3/4 Toxicities: Diarrhea,"[4]; Accelerated Phase, N = 5",1 (20) number (percent)
same,Grade 3/4 Toxicities: Febrile neutropenia,"[4]; Accelerated Phase, N = 5",2 (40) number (percent)
same,Grade 3/4 Toxicities: Neutropenia,"[4]; Accelerated Phase, N = 5",2 (40) number (percent)
same,Grade 3/4 Toxicities: Pancytopenia,"[4]; Accelerated Phase, N = 5",2 (40) number (percent)
same,Grade 3/4 Toxicities: Thrombocytopenia,"[4]; Accelerated Phase, N = 5",3 (60) number (percent)
same,Treatment-Related Serious Adverse Events: Acute Coronary Syndrome*,"[4]; Accelerated Phase, N = 6",0 Number (percent)
same,Deaths on study,"[4]; BP patients with progressive disease, none considered related to the study drug",3 deaths
same,Grade 3/4 Toxicities: Anemia,"[4]; Blast Phase, N = 6",1 (17) number (percent)
same,Grade 3/4 Toxicities: Diarrhea,"[4]; Blast Phase, N = 6",1 (17) number (percent)
same,Grade 3/4 Toxicities: Febrile neutropenia,"[4]; Blast Phase, N = 6",2 (40) number (percent)
same,Grade 3/4 Toxicities: Neutropenia,"[4]; Blast Phase, N = 6",2 (33) number (percent)
same,Grade 3/4 Toxicities: Pancytopenia,"[4]; Blast Phase, N = 6",0 number (percent)
same,Grade 3/4 Toxicities: Thrombocytopenia,"[4]; Blast Phase, N = 6",1 (17) number (percent)
same,Treatment-Related Serious Adverse Events: Acute Coronary Syndrome*,"[4]; Blast Phase, N = 6",0 Number (percent)
same,Treatment-Related Serious Adverse Events: Neutropenic Fever,"[4]; Blast Phase, N = 6",1 (9) Number (percent)
same,Treatment-Related Serious Adverse Events: Thrombocytopenia,"[4]; Blast Phase, N = 6",0 Number (percent)
same,Grade 3/4 Toxicities: Anemia,"[4]; Chronic Phase, N = 12",7 (58) number (percent)
same,Grade 3/4 Toxicities: Diarrhea,"[4]; Chronic Phase, N = 12",2 (17) number (percent)
same,Grade 3/4 Toxicities: Febrile neutropenia,"[4]; Chronic Phase, N = 12",1 (9) number (percent)
same,Grade 3/4 Toxicities: Neutropenia,"[4]; Chronic Phase, N = 12",6 (50) number (percent)
same,Grade 3/4 Toxicities: Pancytopenia,"[4]; Chronic Phase, N = 12",1 (9) number (percent)
same,Grade 3/4 Toxicities: Thrombocytopenia,"[4]; Chronic Phase, N = 12",8 (67) number (percent)
same,Treatment-Related Serious Adverse Events: Neutropenic Fever,"[4]; Chronic Phase, N = 12",1 (9) Number (percent)
same,Treatment-Related Serious Adverse Events: Thrombocytopenia,"[4]; Chronic Phase, N = 12",1 (9) Number (percent)
same,Treatment-Related Serious Adverse Events: Acute Coronary Syndrome*,"[4]; Chronic Phase, N = 12, considered secondary to omacetaxine induced anemia",1 (9) Number (percent)
same,Grade 3/4 Toxicities: Anemia,"[4]; Total, N = 23",10 (43) number (percent)
same,Grade 3/4 Toxicities: Diarrhea,"[4]; Total, N = 23",4 (17) number (percent)
same,Grade 3/4 Toxicities: Febrile neutropenia,"[4]; Total, N = 23",5 (22) number (percent)
same,Grade 3/4 Toxicities: Neutropenia,"[4]; Total, N = 23",10 (43) number (percent)
same,Grade 3/4 Toxicities: Pancytopenia,"[4]; Total, N = 23",3 (13) number (percent)
same,Grade 3/4 Toxicities: Thrombocytopenia,"[4]; Total, N = 23",12 (52) number (percent)
same,Treatment-Related Serious Adverse Events: Acute Coronary Syndrome*,"[4]; Total, N = 23",1 (4) Number (percent)
same,Treatment-Related Serious Adverse Events: Neutropenic Fever,"[4]; Total, N = 23",3 (13) Number (percent)
same,Treatment-Related Serious Adverse Events: Thrombocytopenia,"[4]; Total, N = 23",1 (4) Number (percent)
same,"Grade 1/2 injection site erythema, patients",[4]; number (%) of patients,6 (23%)
same,"Grade 1/2 injection site pain, patients",[4]; number (%) of patients,3 (13%)
same,Dose delays,[4]; of induction cycles,75%
same,Dose delays,[4]; of maintenance cycles,80%
same,myelosuppression (most common side effect),[4]; subcutaneously administered,"usually transient and reversible, and rarely results in serious clinical complications"
same,tolerability,[4]; subcutaneously administered,generally well tolerated

# Reference: patent publication US20090176759A1, “LEUKEMIC STEM CELL ABLATION” (ChemGenex Pharmaceuticals, Inc., priority 2007, published 2009)
